{"source": "paper PMC8667942", "about": "(Journal of Enzyme Inhibition and Medicinal Chemistry, 2021)", "key": {"[1]": {"molecular_target": "T1, CYP2C8 (Homo sapiens, UniProt P10632)", "T1 construct": "from tissue; host or cells: pooled human liver microsomes", "T1 sequence (P10632 1-490)": "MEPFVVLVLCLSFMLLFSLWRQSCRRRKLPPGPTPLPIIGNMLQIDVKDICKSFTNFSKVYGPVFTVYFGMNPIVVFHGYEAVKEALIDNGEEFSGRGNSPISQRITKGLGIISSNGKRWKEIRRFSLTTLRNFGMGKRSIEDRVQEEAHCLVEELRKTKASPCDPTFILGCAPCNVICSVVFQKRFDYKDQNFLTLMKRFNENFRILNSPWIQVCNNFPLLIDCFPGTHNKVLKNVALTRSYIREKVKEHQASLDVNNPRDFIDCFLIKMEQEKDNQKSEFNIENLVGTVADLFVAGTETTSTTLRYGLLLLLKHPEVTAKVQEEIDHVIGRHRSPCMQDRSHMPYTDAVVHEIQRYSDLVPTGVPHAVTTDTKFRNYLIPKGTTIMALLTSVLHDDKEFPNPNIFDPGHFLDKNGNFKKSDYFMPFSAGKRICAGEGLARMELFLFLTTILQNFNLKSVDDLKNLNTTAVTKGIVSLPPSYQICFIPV", "assay": "Direct CYP inhibition assay, pooled human liver microsomes, LC-MS/MS", "format": "in vitro ADME", "conditions": "pooled HLMs, up to 50 μM, amodiaquine substrate", "experimental": "(§1) Reactions were incubated in eight-well strips placed in an 8 × 12 racks (1.2 ml; VWR, Emeryville, CA). The incubation mixtures (final volume, 200 μL) contained 0.2 mg/mL HLMs, 0.1 M phosphate buffer (pH 7.4), 1 mM NADPH, and various CYP isoform-specific substrate cocktail sets (A set: phenacetin, coumarin, amodiaquine, S-mephenytoin, dextromethorphan, and midazolam; B set: bupropion, tolbutamide, chlorzoxazone, and testosterone). […] Substrates were dissolved and serially diluted with acetonitrile to the required concentration in all experiments. […] The reactions were incubated at 37 °C in a shaking water bath. The reactions were terminated by placing the incubation tubes on ice, adding 200 μL of cold acetonitrile containing carbamazepine (100 nM) and 4-methylumbelliferone (500 nM) as an internal standard after 10 min, and agitating with a vortex mixer before centrifugation. The samples for each enzyme assay were centrifuged at 3,000 × g for 20 min at 4 °C, and supernatants of the individual reaction samples and pooled cocktail incubation samples (A set: B set, 1:1) were analysed using LC-MS/MS.\n(§2) Sample injection volume was 10 μL, and separation was performed on an Atlantis™ dC18 column (2.1 × 50 mm i.d., 3 μm; Waters, Milford, MA, USA) and Luna™5u C18 column (2.0 × 30 mm i.d.; Phenomenex, Torrance, CA, USA) with a SecurityGuard™ C18 guard column (2.0 × 4.0 mm i.d.; Phenomenex, Torrance, CA, USA) maintained at 30 °C. The column was pre-equilibrated in 100% v/v solvent A (deionized water containing 0.1% v/v formic acid)/0% v/v solvent B (acetonitrile containing 0.1% v/v formic acid) at a flow rate of 0.4 ml/min. […] Quadrupoles Q1 and Q3 were set on unit resolution. The samples were analysed via multiple reaction monitoring (MRM) and enhanced product ion (EPI) scan mode. The turbo ion spray interface was operated in the positive ion mode at 5,500 V. The operating conditions were determined as follows: ion source temperature, 600 °C; nebulising gas flow, 50 L/min; auxiliary gas flow, 4.0 L/min; curtain gas flow, 20 L/min; collision gas (nitrogen) pressure 3.6 × 10^−5 Torr. Nitrogen gas was used for CUR, CAD, and NEB. The MRM transitions, collision energies and retention time were determined for each metabolite. The samples were analysed via MRM as described in our previous study. The scan dwell time was set at 0.08 s for every channel. Data acquisition and analysis was performed using the Analyst™ software (version 1.5.2; Applied Biosystems, Foster City, CA, USA)."}, "[2]": {"molecular_target": "T2, CYP2E1 (Homo sapiens, UniProt P05181)", "T2 construct": "from tissue; host or cells: pooled human liver microsomes", "T2 sequence (P05181 whole entry)": "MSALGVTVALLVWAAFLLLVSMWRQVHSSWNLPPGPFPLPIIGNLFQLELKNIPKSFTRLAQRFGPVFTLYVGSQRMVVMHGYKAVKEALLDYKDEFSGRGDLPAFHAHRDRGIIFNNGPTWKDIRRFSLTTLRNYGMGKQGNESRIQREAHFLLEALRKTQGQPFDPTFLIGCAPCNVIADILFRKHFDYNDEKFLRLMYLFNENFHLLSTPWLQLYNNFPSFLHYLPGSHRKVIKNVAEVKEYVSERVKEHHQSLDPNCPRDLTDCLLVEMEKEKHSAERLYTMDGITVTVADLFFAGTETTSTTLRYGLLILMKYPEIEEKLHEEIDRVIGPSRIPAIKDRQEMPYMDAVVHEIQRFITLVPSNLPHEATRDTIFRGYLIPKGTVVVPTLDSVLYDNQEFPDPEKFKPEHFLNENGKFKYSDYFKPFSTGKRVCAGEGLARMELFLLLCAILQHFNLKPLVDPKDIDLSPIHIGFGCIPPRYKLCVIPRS", "assay": "Direct CYP inhibition assay, pooled human liver microsomes, LC-MS/MS", "format": "in vitro ADME", "conditions": "pooled HLMs, up to 50 μM, chlorzoxazone substrate", "experimental": "as §1, §2"}, "[3]": {"molecular_target": "purified CYP3A4 (Homo sapiens, UniProt P08684)", "sequence (P08684 whole entry)": "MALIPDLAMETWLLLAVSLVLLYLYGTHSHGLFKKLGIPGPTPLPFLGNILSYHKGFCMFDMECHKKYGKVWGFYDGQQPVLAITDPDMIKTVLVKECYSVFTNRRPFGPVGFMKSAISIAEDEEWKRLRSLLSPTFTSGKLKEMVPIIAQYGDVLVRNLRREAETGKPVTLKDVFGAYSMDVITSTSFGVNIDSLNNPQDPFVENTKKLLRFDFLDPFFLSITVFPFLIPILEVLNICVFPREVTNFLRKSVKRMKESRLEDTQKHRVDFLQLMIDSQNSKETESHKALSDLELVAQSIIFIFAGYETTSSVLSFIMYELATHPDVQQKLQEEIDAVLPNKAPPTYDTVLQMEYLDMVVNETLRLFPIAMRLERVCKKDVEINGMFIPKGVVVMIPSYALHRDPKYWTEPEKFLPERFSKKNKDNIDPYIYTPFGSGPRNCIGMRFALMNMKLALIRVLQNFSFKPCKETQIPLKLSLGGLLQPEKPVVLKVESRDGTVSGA", "assay": "Spectral binding titration of purified CYP3A4", "conditions": "Type I or Type II spectral change", "procedure": "Purified CYP3A4 enzymes were diluted to 1 µM in 100 mM potassium phosphate buffer (pH 7.4) and then divided into two glass cuvettes. […] The binding titration was analysed using GraphPad Prism software (GraphPad, Inc., La Jolla, CA, USA)."}, "[4]": {"system": "IP6K", "conditions": "[ATP] = 1 mM; cited from earlier work"}, "[5]": {"system": "IP3K", "conditions": "[ATP] = 10 μM; cited from earlier work"}}}
{"compound": "O=[N+]([O-])c1ccc(CNc2nc(NCc3cccc(C(F)(F)F)c3)nc3[nH]cnc23)cc1", "note": "[TNP, N^6-[(4-nitrophenyl)methyl]-N^2-[[3-(trifluoromethyl)phenyl]methyl]-9H-purine-2,6-diamine]", "values": [{"measurement": "inhibitory effect on CYP2C8", "setting": "[1]", "value": "no inhibitory effect"}, {"measurement": "inhibitory effect on CYP2E1", "setting": "[2]", "value": "no inhibitory effect"}, {"measurement": "CYP3A4 binding mode", "setting": "[3]", "value": "Type I"}, {"measurement": "IC50", "setting": "[4]", "value": 0.47, "unit": "µM"}, {"measurement": "IC50", "setting": "[5]", "value": 18, "unit": "µM"}]}
